Values of other authors as cited in patent EP0268926A2, “Safened sorptive granular pesticidal resin compositions for controlling soil borne pests and process for the preparation thereof” (priority 1986, dated 1988).

System: rats
Conditions: technical pesticide

CCOP(=S)(OCC)SCSCC [phorate, O,O-diethyl-S-(ethylthiomethyl)phosphorodithioate]
acute oral LD50 value in rats: 1.6-3.7 mg technical/kg
